Results taken from patent US20260098061A1, “EPHA2-BINDING PENDING PEPTIDE AND COMPOSITION COMPRISING SAME” (PeptiDream Inc., priority 2022, published 2026).
Numbered stars: 1 amine (or outer) side, 2 acyl side, 3 side chain; on linkers, the order of the positions; unused ones are H or OH. Bridge positions count the residues as written; N and C are the ends. Square brackets hold non-standard residues; d marks the D form. Side chains are listed from the residue outwards. Peptide text beside a SMILES is read from it. * marks the point of attachment. X6 = Cn1cc(C[C@H](N[*:1])C(=O)[*:2])c2cccnc21; Piperazinyl(4-CH2COOH) = O=C(O)CN1CCN(*)CC1; Trp(1-Me) = Cn1cc(C[C@H](N)C(=O)O)c2ccccc21; X5 = Cc1cccc(C[C@H](N[*:1])C(=O)[*:2])c1C; NMe3Pal = CN[C@@H](Cc1cccnc1)C(=O)O; NMeF = CN[C@@H](Cc1ccccc1)C(=O)O; Gly(cBu) = N[C@H](C(=O)O)C1CCC1; NMeE = CN[C@@H](CCC(=O)O)C(=O)O; Aad = N[C@@H](CCCC(=O)O)C(=O)O; NMeN = CN[C@@H](CC(N)=O)C(=O)O; Chg = N[C@H](C(=O)O)C1CCCCC1; CO = O=C([*:1])[*:2]

Target: T1, Recombinant Human EphA2 Fc Protein (Homo sapiens, UniProt P29317)
T1 construct: purchased Elabscience
Assay: SPR interaction analysis (Biacore T200), kinetics of peptides against EphA2
Type: binding
Settings: Recombinant Human EphA2 Fc Protein captured by Human Antibody Capture kit; single-cycle kinetics; 25° C.; HBS-P+ buffer with 1% DMSO
Method in brief: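 KD derived from ka and kd, fitted on baseline-subtracted sensorgrams from single-cycle kinetics of five peptide dilutions. Running buffer: HBS-P+ (pH 7.4) plus 1% DMSO, 25° C, Biacore T200. Recombinant human EphA2-Fc held on an antibody capture surface.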

| SMILES | Kd [nM] |
| --- | --- |
| C[C@H]1NC(=O)CSC[C@@H](C(N)=O)NC(=O)[C@H](CCCC(N)=O)NC(=O)[C@H]([C@@H](C)O)NC(=O)[C@H](Cc2cn(C)c3ccccc23)NC(=O)[C@H](CCCCNC(=O)N2CCN(CC(=O)O)CC2)NC(=O)[C@H](Cc2cn(C)c3ccccc23)NC(=O)[C@H](CC(N)=O)N(C)C(=O)[C@H](CCCC(N)=O)NC(=O)[C@H](C2CCC2)NC(=O)[C@H](CC(N)=O)NC(=O)[C@H](Cc2cccnc2)N(C)C1=O [PDC_EphA2-00010001, da-Me3Py-N-Cbg-Hgn-MeN-W1Me-KCOpipzaa-W1Me-T-Hgn-C-NH2] ({CH2CO}-[dA][NMe3Pal]N[Gly(cBu)][Aad](NH2)[NMeN][Trp(1-Me)]K([CO-Piperazinyl(4-CH2COOH)])[Trp(1-Me)]T[Aad](NH2)C-NH2; thioether N-12) | < 1 |
| C[C@H]1NC(=O)CSC[C@@H](C(N)=O)NC(=O)[C@H](CCCC(N)=O)NC(=O)[C@H]([C@@H](C)O)NC(=O)[C@H](Cc2cn(C)c3ccccc23)NC(=O)[C@H](CCCCNC(=O)N2CCN(CC(=O)O)CC2)NC(=O)[C@H](Cc2cn(C)c3ncccc23)NC(=O)[C@H](Cc2ccccc2)N(C)C(=O)[C@H](CCCC(N)=O)NC(=O)[C@H](C2CCC2)NC(=O)[C@H](CC(N)=O)NC(=O)[C@H](Cc2cccnc2)N(C)C1=O [PDC_EphA2-00010002, da-Me3Py-N-Cbg-Hgn-MeF-W1Me7N-KCOpipzaa-W1Me-T-Hgn-C-NH2] ({CH2CO}-[dA][NMe3Pal]N[Gly(cBu)][Aad](NH2)[NMeF][X6]K([CO-Piperazinyl(4-CH2COOH)])[Trp(1-Me)]T[Aad](NH2)C-NH2; thioether N-12) | < 1 |
| Cc1cccc(C[C@@H]2NC(=O)[C@H](CCCCNC(=O)N3CCN(CC(=O)O)CC3)NC(=O)[C@H](Cc3cn(C)c4ccccc34)NC(=O)[C@H](Cc3ccccc3)N(C)C(=O)[C@H](CCCC(N)=O)NC(=O)[C@H](C3CCC3)NC(=O)[C@H](CC(N)=O)NC(=O)[C@H](Cc3cccnc3)N(C)C(=O)[C@@H](C)NC(=O)CSC[C@@H](C(N)=O)NC(=O)[C@H](CCCC(N)=O)NC(=O)[C@H]([C@@H](C)O)NC2=O)c1C [PDC_EphA2-00010003, da-Me3Py-N-Cbg-Hgn-MeF-W1Me-KCOpipzaa-F23dMe-T-Hgn-C-NH2] ({CH2CO}-[dA][NMe3Pal]N[Gly(cBu)][Aad](NH2)[NMeF][Trp(1-Me)]K([CO-Piperazinyl(4-CH2COOH)])[X5]T[Aad](NH2)C-NH2; thioether N-12) | < 1 |
| C[C@H]1NC(=O)CSC[C@@H](C(N)=O)NC(=O)[C@H](CC(N)=O)NC(=O)[C@H]([C@@H](C)O)NC(=O)[C@H](Cc2cn(C)c3ccccc23)NC(=O)[C@H](CCCCNC(=O)N2CCN(CC(=O)O)CC2)NC(=O)[C@H](Cc2cn(C)c3ccccc23)NC(=O)[C@H](Cc2ccccc2)N(C)C(=O)[C@H](CCCC(N)=O)NC(=O)[C@H](C2CCC2)NC(=O)[C@H](CC(N)=O)NC(=O)[C@H](Cc2cccnc2)N(C)C1=O [PDC_EphA2-00010004, da-Me3Py-N-Cbg-Hgn-MeF-W1Me-KCOpipzaa-W1Me-T-N-C-NH2] ({CH2CO}-[dA][NMe3Pal]N[Gly(cBu)][Aad](NH2)[NMeF][Trp(1-Me)]K([CO-Piperazinyl(4-CH2COOH)])[Trp(1-Me)]TNC-NH2; thioether N-12) | < 1 |
| C[C@H]1NC(=O)CSC[C@@H](C(N)=O)NC(=O)[C@H](CCCC(N)=O)NC(=O)[C@H]([C@@H](C)O)NC(=O)[C@H](Cc2cn(C)c3ccccc23)NC(=O)[C@H](CCCCNC(=O)N2CCN(CC(=O)O)CC2)NC(=O)[C@H](Cc2cn(C)c3ccccc23)NC(=O)[C@H](Cc2ccccc2)N(C)C(=O)[C@H](CCCC(N)=O)NC(=O)[C@H](C2CCCCC2)NC(=O)[C@H](CC(N)=O)NC(=O)[C@H](Cc2cccnc2)N(C)C1=O [PDC_EphA2-00010005, da-Me3Py-N-Chg-Hgn-MeF-W1Me-KCOpipzaa-W1Me-T-Hgn-C-NH2] ({CH2CO}-[dA][NMe3Pal]N[Chg][Aad](NH2)[NMeF][Trp(1-Me)]K([CO-Piperazinyl(4-CH2COOH)])[Trp(1-Me)]T[Aad](NH2)C-NH2; thioether N-12) | < 1 |
| CC(C)C[C@@H]1NC(=O)[C@H](CC(N)=O)NC(=O)[C@H](Cc2cccnc2)N(C)C(=O)[C@@H](C)NC(=O)CSC[C@@H](C(N)=O)NC(=O)[C@H](CCCC(N)=O)NC(=O)[C@H]([C@@H](C)O)NC(=O)[C@H](Cc2cn(C)c3ccccc23)NC(=O)[C@H](CCCCNC(=O)N2CCN(CC(=O)O)CC2)NC(=O)[C@H](Cc2cn(C)c3ccccc23)NC(=O)[C@H](CCC(=O)O)N(C)C(=O)[C@H](CCCC(=O)O)NC1=O [PDC_EphA2-00010006, da-Me3Py-N-L-Hgl-MeE-W1Me-KCOpipzaa-W1Me-T-Hgn-C-NH2] ({CH2CO}-[dA][NMe3Pal]NL[Aad][NMeE][Trp(1-Me)]K([CO-Piperazinyl(4-CH2COOH)])[Trp(1-Me)]T[Aad](NH2)C-NH2; thioether N-12) | < 1 |
| C[C@H]1NC(=O)CSC[C@@H](C(N)=O)NC(=O)[C@H](CCCC(N)=O)NC(=O)[C@H]([C@@H](C)O)NC(=O)[C@H](Cc2cn(C)c3ccccc23)NC(=O)[C@H](CCCCNC(=O)N2CCN(CC(=O)O)CC2)NC(=O)[C@H](Cc2cn(C)c3ccccc23)NC(=O)[C@H](CCC(=O)O)N(C)C(=O)[C@H](CCCC(=O)O)NC(=O)[C@H](C2CCC2)NC(=O)[C@H](CC(N)=O)NC(=O)[C@H](Cc2cccnc2)N(C)C1=O [PDC_EphA2-00010007, da-Me3Py-N-Cbg-Hgl-MeE-W1Me-KCOpipzaa-W1Me-T-Hgn-C-NH2] ({CH2CO}-[dA][NMe3Pal]N[Gly(cBu)][Aad][NMeE][Trp(1-Me)]K([CO-Piperazinyl(4-CH2COOH)])[Trp(1-Me)]T[Aad](NH2)C-NH2; thioether N-12) | < 1 |
| CC(C)C[C@@H]1NC(=O)[C@H](CC(N)=O)NC(=O)[C@H](Cc2cccnc2)N(C)C(=O)[C@@H](C)NC(=O)CSC[C@@H](C(N)=O)NC(=O)[C@H](CCCC(N)=O)NC(=O)[C@H]([C@@H](C)O)NC(=O)[C@H](Cc2cn(C)c3ccccc23)NC(=O)[C@H](CCCCNC(=O)N2CCN(CC(=O)O)CC2)NC(=O)[C@H](Cc2cn(C)c3ccccc23)NC(=O)[C@H](CCC(=O)O)N(C)C(=O)[C@H](CCCC(N)=O)NC1=O [PDC_EphA2-00010008, da-Me3Py-N-L-Hgn-MeE-W1Me-KCOpipzaa-W1Me-T-Hgn-C-NH2] ({CH2CO}-[dA][NMe3Pal]NL[Aad](NH2)[NMeE][Trp(1-Me)]K([CO-Piperazinyl(4-CH2COOH)])[Trp(1-Me)]T[Aad](NH2)C-NH2; thioether N-12) | < 1 |
| C[C@H]1NC(=O)CSC[C@@H](C(N)=O)NC(=O)[C@H](CCCC(N)=O)NC(=O)[C@H]([C@@H](C)O)NC(=O)[C@H](Cc2cn(C)c3ccccc23)NC(=O)[C@H](CCCCNC(=O)N2CCN(CC(=O)O)CC2)NC(=O)[C@H](Cc2cn(C)c3ccccc23)NC(=O)[C@H](CCC(=O)O)N(C)C(=O)[C@H](CCCC(N)=O)NC(=O)[C@H](C2CCC2)NC(=O)[C@H](CC(N)=O)NC(=O)[C@H](Cc2cccnc2)N(C)C1=O [PDC_EphA2-00010009, da-Me3Py-N-Cbg-Hgn-MeE-W1Me-KCOpipzaa-W1Me-T-Hgn-C-NH2] ({CH2CO}-[dA][NMe3Pal]N[Gly(cBu)][Aad](NH2)[NMeE][Trp(1-Me)]K([CO-Piperazinyl(4-CH2COOH)])[Trp(1-Me)]T[Aad](NH2)C-NH2; thioether N-12) | < 1 |
| CC(C)[C@@H]1NC(=O)[C@H](Cc2cn(C)c3ccccc23)NC(=O)[C@H](CC(N)=O)NC(=O)[C@H](CCCC(N)=O)NC(=O)[C@H](C2CCC2)NC(=O)[C@H](CC(N)=O)NC(=O)[C@H](Cc2cccnc2)N(C)C(=O)[C@@H](C)NC(=O)CSC[C@@H](C(N)=O)NC(=O)[C@H](CCCC(N)=O)NC(=O)[C@H]([C@@H](C)O)NC(=O)[C@H](Cc2cn(C)c3ccccc23)NC1=O [PDC_EphA2-00010010, da-Me3Py-N-Cbg-Hgn-N-W1Me-V-W1Me-T-Hgn-C-NH2] ({CH2CO}-[dA][NMe3Pal]N[Gly(cBu)][Aad](NH2)N[Trp(1-Me)]V[Trp(1-Me)]T[Aad](NH2)C-NH2; thioether N-12) | < 1 |
| CC(C)[C@@H]1NC(=O)[C@H](Cc2cn(C)c3ccccc23)NC(=O)[C@H](CC(N)=O)N(C)C(=O)[C@H](CCCC(N)=O)NC(=O)[C@H](C2CCC2)NC(=O)[C@H](CC(N)=O)NC(=O)[C@H](Cc2cccnc2)N(C)C(=O)[C@@H](C)NC(=O)CSC[C@@H](C(N)=O)NC(=O)[C@H](CCCC(N)=O)NC(=O)[C@H]([C@@H](C)O)NC(=O)[C@H](Cc2cn(C)c3ccccc23)NC1=O [PDC_EphA2-00010011, da-Me3Py-N-Cbg-Hgn-MeN-W1Me-V-W1Me-T-Hgn-C-NH2] ({CH2CO}-[dA][NMe3Pal]N[Gly(cBu)][Aad](NH2)[NMeN][Trp(1-Me)]V[Trp(1-Me)]T[Aad](NH2)C-NH2; thioether N-12) | < 1 |
| CC(C)[C@@H]1NC(=O)[C@H](Cc2cn(C)c3ccccc23)NC(=O)[C@H](Cc2cccnc2)N(C)C(=O)[C@H](CCCC(N)=O)NC(=O)[C@H](C2CCC2)NC(=O)[C@H](CC(N)=O)NC(=O)[C@H](Cc2cccnc2)N(C)C(=O)[C@@H](C)NC(=O)CSC[C@@H](C(N)=O)NC(=O)[C@H](CCCC(N)=O)NC(=O)[C@H]([C@@H](C)O)NC(=O)[C@H](Cc2cn(C)c3ccccc23)NC1=O [PDC_EphA2-00010012, da-Me3Py-N-Cbg-Hgn-Me3Py-W1Me-V-W1Me-T-Hgn-C-NH2] ({CH2CO}-[dA][NMe3Pal]N[Gly(cBu)][Aad](NH2)[NMe3Pal][Trp(1-Me)]V[Trp(1-Me)]T[Aad](NH2)C-NH2; thioether N-12) | < 1 |
| CC(C)[C@@H]1NC(=O)[C@H](Cc2cn(C)c3ccccc23)NC(=O)[C@H](CC(N)=O)N(C)C(=O)[C@H](CCCC(N)=O)NC(=O)[C@H](C2CCC2)NC(=O)[C@H](CC(N)=O)NC(=O)[C@H](Cc2ccccc2)N(C)C(=O)[C@@H](C)NC(=O)CSC[C@@H](C(N)=O)NC(=O)[C@H](CCCC(N)=O)NC(=O)[C@H]([C@@H](C)O)NC(=O)[C@H](Cc2cn(C)c3ccccc23)NC1=O [PDC_EphA2-00013693, da-MeF-N-Cbg-Hgn-MeN-W1Me-V-W1Me-T-Hgn-C-NH2] ({CH2CO}-[dA][NMeF]N[Gly(cBu)][Aad](NH2)[NMeN][Trp(1-Me)]V[Trp(1-Me)]T[Aad](NH2)C-NH2; thioether N-12) | < 1 |
